# Measurements reported in patent publication US10550079B2, “Artificial self-sufficient cytochrome P450s” (University of Florida Research Foundation, Incorporated, priority 2015, dated 2020).
# “Also recorded” adds a separate entry of the source.
# Experiments:
# [1] = Stability of NO donor NOC-5 at different pH values and temperatures; assay type: physicochemical
# Description: The stability of NO donor NOC-5 was first examined. Its solution was incubated at different pH value (4.5 to 9.5) and temperatures (4 to 65° C.) for 30 min. It was then used as NO donor in the P450 nitration reactions. […] To determine pH effects on the activity of TxtE and TxtEBM3R, enzyme (1.5 μM) reactions were performed in 100 mM Tris-Cl or sodium phosphate with various pH values (4.5 to 9.5) at 20° C., 300 rpm for 30 min. To determine enzyme pH stability, 5 μL of 30 μM enzyme solutions were incubated at buffers with different pH value (4.5 to 9.5). After 15 minutes, other reaction components (95 μL) were mixed to initiate nitration reactions as described above. […] Products were quantitated by HPLC as described above. Conversion rate (%) was calculated by the equation of the area of under the 4-nitro-l-tryptophan peak/the total areas of both substrate and product peaks*100. […]
# The stability of NO donor NOC-5 was first examined by incubating it in solutions of different pH values (4.5 to 9.5) and temperatures (4 to 65° C.) for 30 min. […] Products were quantitated by HPLC as described above. Peak area was determined with software installed in the Shimadzu Prominence UHPLC system. Conversion rate (%) was calculated as product (nmol)/product+substrate (nmol)×100 based on the standard curves of Trp and 4-NO2-Trp generated. […]
# [2] = target: T1, TxtE (Streptomyces scabiei, UniProt C9ZDC6); experiment: Binding affinities of L-tryptophan and substituted tryptophan analogs (FIG. 29A)
# Description: Binding affinities and relative nitration conversions for L-tryptophan and several substituted tryptophan analogs were also assessed (FIGS. 29A-29B). […] Furthermore, the nitration activity of TxtE and TxtEBM3R was assessed. In addition to substrate, enzyme reactions typically contained NADP+, an NADPH regeneration system (glucose and glucose dehydrogenase, GDH), spinach ferredoxin (Fer) and ferredoxin reductase (Frd) as redox partners, and 3-[2-hydroxy-1-(l-methylethyl)-2-nitrosohydrazinyl]-1-propanamine (NOC-5) as an NO donor. Reverse-phase UHPLC coupled with a PDA detector and liquid chromatography-mass spectrometry (LC-MS, ESI positive) was employed to detect the nitrated products (FIG. 29B).
# [3] = target: T1, TxtE; parameters: inferred from the pET28 vector and Ni-NTA purification) (C); made in house; host or cells: E. coli BL21 (DE3)-GOLD; conditions: previous studies (Barry et al. 2012; Dodani et al. 2014); cited from earlier work
# [4] = target: T2, TxtE-RhFRed (Streptomyces scabiei, UniProt C9ZDC6); experiment: Substrate binding affinity by UV-Vis spectral titration, TxtE-RhFRed; parameters: species or system S. scabies 87.22; conditions: […] enzyme, 25 mM Tris-HCl pH 8.0
# T2 sequence (C9ZDC6 1-406): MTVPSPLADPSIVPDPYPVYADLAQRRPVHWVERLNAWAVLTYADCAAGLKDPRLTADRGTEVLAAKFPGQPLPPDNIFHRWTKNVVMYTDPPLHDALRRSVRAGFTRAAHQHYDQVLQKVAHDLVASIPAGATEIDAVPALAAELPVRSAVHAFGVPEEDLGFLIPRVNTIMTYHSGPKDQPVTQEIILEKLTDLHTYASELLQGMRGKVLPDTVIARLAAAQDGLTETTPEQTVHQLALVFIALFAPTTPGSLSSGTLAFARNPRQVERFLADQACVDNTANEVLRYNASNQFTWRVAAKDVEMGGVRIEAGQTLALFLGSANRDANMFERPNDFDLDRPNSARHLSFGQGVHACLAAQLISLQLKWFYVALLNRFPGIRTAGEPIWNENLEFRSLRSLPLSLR
# T2 sequence (Q8KU27 445-773 partner): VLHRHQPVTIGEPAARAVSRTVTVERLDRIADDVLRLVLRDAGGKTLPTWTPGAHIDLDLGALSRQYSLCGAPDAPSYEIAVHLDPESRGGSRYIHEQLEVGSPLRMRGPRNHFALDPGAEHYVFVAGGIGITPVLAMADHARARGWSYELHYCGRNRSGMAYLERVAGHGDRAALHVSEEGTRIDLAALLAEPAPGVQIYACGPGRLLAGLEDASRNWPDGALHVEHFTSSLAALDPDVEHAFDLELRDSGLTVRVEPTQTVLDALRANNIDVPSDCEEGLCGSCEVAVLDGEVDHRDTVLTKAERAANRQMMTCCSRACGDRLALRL
# Description: (§1) Purified TxtE and its fusion enzymes were spectrally analyzed following a previous protocol (Ding et al. 2008). Briefly, the absorbance spectra (400-600 nm) of TxtE variants ([…]) in Tris-HCl (25 mM, pH 8) buffer were recorded with a Shimadzu UV2700 dual beam UV-Vis spectrophotometer. The ferric heme of enzymes was then saturated with carbon monoxide (Airgas) through bubbling and the spectra of the saturated enzyme solutions were recorded. Immediately, sodium dithionite solution (30 μL, 0.5 M) was added to reduce ferric ion, and reduced spectra were taken subsequently. CO reduced difference spectra of all enzymes were created by subtracting the CO binding spectra from the reduced spectra. Data were further analyzed by GraphPad Prism 4. […] Not more than 10 μl of substrate stock solutions prepared in the above buffer were added to the sample cuvette with an interval of 0.5 μl, and the spectra were recorded from 300 nm to 500 nm each time. […] The changes in absorbance (ΔA) were determined by subtracting the absorbance at ˜420 nm from that at ˜390 nm. […]
# (§2) Purified TxtE and its fusion enzymes were spectrally analyzed following a previous protocol. Briefly, the absorbance spectra (400-600 nm) of TxtE variants (3 μM) in Tris-HCl (25 mM, pH 8) buffer were recorded with a Shimadzu UV2700 dual beam UV-Vis spectrophotometer. […] Data were further analyzed by GraphPad Prism 4. […]
# [5] = target: T1, TxtE; experiment: Substrate binding affinity by UV-Vis spectral titration, wild type TxtE; parameters: inferred from the pET28 vector and Ni-NTA purification) (C); made in house; host or cells: E. coli BL21 (DE3)-GOLD; species or system S. scabies 87.22; conditions: […] enzyme, 25 mM Tris-HCl pH 8.0
# Description: as §1, §2
# [6] = target: T2, TxtE-RhFRed; experiment: Substrate binding affinity by UV-Vis spectral titration, TxtE-RhFRed*; parameters: species or system S. scabies 87.22; conditions: […] enzyme, 25 mM Tris-HCl pH 8.0
# Description: as §1, §2
# [7] = target: T3, TxtE-BM3R (UniProt C9ZDC6); experiment: Substrate binding affinity by UV-Vis spectral titration, TxtE-BM3R; parameters: species or system S. scabies 87.22 / B. megaterium ATCC 14581; conditions: Kd, […] enzyme, 25 mM Tris-HCl pH 8.0; for 4-F-DL-tryptophan total concentration of the racemic mixture used
# T3 construct: P450BM3 (CYP102A1) reductase domain BM3R with its Domcut-predicted native linker, from B. megaterium ATCC 14581 (GenBank J04832.1); made in house; host or cells: E. coli BL21 (DE3)-GOLD
# Description: (§3) Purified TxtE and its fusion enzymes were spectrally analyzed following a previous protocol (Ding et al. 2008). Briefly, the absorbance spectra (400-600 nm) of TxtE variants (3 M) in Tris-HCl (25 mM, pH 8) buffer were recorded with a Shimadzu UV2700 dual beam UV-Vis spectrophotometer. The ferric heme of enzymes was then saturated with carbon monoxide (Airgas) through bubbling and the spectra of the saturated enzyme solutions were recorded. Immediately, sodium dithionite solution (30 μL, 0.5 M) was added to reduce ferric ion, and reduced spectra were taken subsequently. CO reduced difference spectra of all enzymes were created by subtracting the CO binding spectra from the reduced spectra. Data were further analyzed by GraphPad Prism 4. […] Not more than 10 μl of substrate stock solutions prepared in the above buffer were added to the sample cuvette with an interval of 0.5 μl, and the spectra were recorded from 300 nm to 500 nm each time. The equal volume of buffer was added to the reference cuvette. The changes in absorbance (ΔA) were determined by subtracting the absorbance at ˜420 nm from that at ˜390 nm. Data were then fitted to Michaelis-Menten equation using GraphPad Prism 4.
# as §3, with “previous protocol.” for “previous protocol (Ding et al. 2008).”, “(3 μM)” for “(3 M)”, “to the” for “to Michaelis-Menten”, “equation of ΔA=ΔAmax[L]/(Kd+[L])” for “equation”
# [8] = target: T4, TxtE-BM3R (UniProt C9ZDC6+P14779); experiment: as above; parameters: species or system S. scabies 87.22 / B. megaterium ATCC 14581; conditions: for binding affinity lowered compared with native substrate L-tryptophan: TxtE-BM3R; for Kd: […] enzyme, 25 mM Tris-HCl pH 8.0, for 4-F-DL-tryptophan total concentration of the racemic mixture used; for binding affinity to TxtE-BM3R compared with TxtE: tighter/higher than to TxtE
# T4 construct: P450BM3 (CYP102A1) reductase domain BM3R with its Domcut-predicted native linker, from B. megaterium ATCC 14581 (GenBank J04832.1); made in house; host or cells: E. coli BL21 (DE3)-GOLD
# Description: as §3
# as §3, with “previous protocol.” for “previous protocol (Ding et al. 2008).”, “(3 μM)” for “(3 M)”, “to the” for “to Michaelis-Menten”, “equation of ΔA=ΔAmax[L]/(Kd+[L])” for “equation”
structure (smiles),measurement,setting,value
"CC(C)N(CCCN)/[N+]([O-])=N/O [NOC-5, 3-(Aminopropyl)-1-hydroxy-3-isopropyl-2-oxo-1-triazene]",stability at temperatures higher than 25° C.,"[1]; 4 to 65° C., 30 min",decomposed quickly and significantly
same,stability at different pH values,"[1]; pH 4.5 to 9.5, 30 min",stable in all tested pH values; also recorded: stable over a broad pH range; also recorded: stable at all tested pH values
C[C@](N)(Cc1c[nH]c2ccccc12)C(=O)O [α-Me-Trp],binding affinity relative to L-tryptophan (FIG. 29A),[2],significantly weakened interactions
N[C@H](Cc1c[nH]c2ccccc12)C(=O)O [D-tryptophan],spectral changes induced in TxtE solution,[3],unable to induce spectral changes
N[C@H](CO)Cc1c[nH]c2ccccc12 [L-tryptophanol],binding affinity relative to L-tryptophan (FIG. 29A),[2],significantly weakened interactions
N[C@@H](Cc1c[nH]c2ccccc12)C(=O)O [L-tryptophan],Kd,[4],18.2 µM
same,Kd,[5],24.8 µM
same,Kd,[6],24.3 µM
same,Kd,[7],20.8 µM
"NC(Cc1c[nH]c2cccc(F)c12)C(=O)O (racemic) [4-F-DL-tryptophan, 4-F-dl-tryptophan]",binding affinity lowered compared with native substrate L-tryptophan,[8],about 8 times
same,Kd,[8],189 ± 11.1 µM
same,binding affinity to TxtE-BM3R compared with TxtE,[8],slightly tightened
"N[C@@H](Cc1c[nH]c2ccc(F)cc12)C(=O)O [5-F-L-tryptophan, 5-F-l-tryptophan]",binding affinity lowered compared with native substrate L-tryptophan,[8],~3 times
same,Kd,[8],84.2 ± 4.37 µM
same,Kd,[8]; listed as 5-F-l-tryptophan,84.2 ± 4.4 µM
same,binding affinity to TxtE-BM3R compared with TxtE,[8],slightly tightened
O=C(O)C(=O)Cc1c[nH]c2ccccc12 [indole-3-pyruvate],binding affinity relative to L-tryptophan (FIG. 29A),[2],significantly weakened interactions
